Reference: patent US6541240B1, “Bacterial cleavage of only organic C-N bonds of carbonaceous materials to reduce nitrogen content” (Petroleo Brasileiro S.A.-Petrobras, priority 1999, dated 2003)

Legend:
[1] = test system: Pseudomonas ayucida No PTA-806; assay: Nitrogen Bioavailability Assay, substrate range and specificity tests; format: cell-based; settings: for growth on test compound as nitrogen source: substrate range and specificity tests
Description: The ability of bacteria to utilize organic nitrogen compounds for growth can be measured by the Nitrogen Bioavailability Assay (NBA). This assay is based on the fact that all life requires some nitrogen for growth and, therefore, a situation can be created whereby quantifying bacterial growth provides a measure of the utilization of any organic or inorganic compound as a source of nitrogen.
Thus, the Nitrogen Availability Assay utilizes defined mineral salts medium in growth tests in which organonitrogen model compounds such as quinoline, pyridine, carbazole, and porphyrin serve as sources of carbon and/or nitrogen. Growth tests are performed using six conditions:
1. Test compound as sole source of carbon and nitrogen;
2. […]
3. Test compound as sole source of nitrogen (alternative carbon source, glucose/glycerol/succinate, is available);
4. Test compound present as well as alternative sources of carbon and nitrogen;
5. Only alternative nitrogen (ammonia) and carbon (glucose/glycerol/succinate) sources are available. The test compound is not present.
6. No nitrogen compounds of any kind are present, but alternative carbon (glucose/glycerol/succinate) sources are available.
These six growth conditions constitute a bioassay for the ability of a culture to metabolize organonitrogen compounds. […]
The NBA test may be performed with any organonitrogen test compound which is ordinarily used at a concentration of from 3 mM to 20 mM.
In order to determine the range of organonitrogen compounds that could serve as sole sources of nitrogen for growth for the various pure cultures of the invention various organonitrogen compounds and control compounds are tested according to the Nitrogen Bioavailability Assay procedure. All compounds are highly pure, analytical grade compounds.
The various cultures are inoculated into test tubes or shake flasks containing media components appropriate for the six test conditions.
The cultures are then incubated aerobically for 2 to 4 days, at room temperature or at 30° C.
The growth of the cultures is monitored by measuring the turbidity/optical density of the cultures in the various test conditions, or by determining colony forming units.
Test condition no 6 (nitrogen-free sample) is a negative control.
Test conditions no 4 and 5 are positive controls since the samples are amended with both a carbon and nitrogen source and therefore should produce healthy microbial growth unless the test compound is toxic to the culture being tested. In this event only condition no 5 should result in healthy growth.
Substrate range and specificity tests were also carried out for the microorganism of the invention.

Aneurinibacillus sp. = assay: Nitrogen Availability Assay, growth and substrate range tests of thermophilic culture; settings: for minimum nitrogen concentration needed for growth: sole nitrogen source; for growth on test compound (substrate range): 3 mM test compound, 2 to 3 weeks incubation
Protocol: The growth curve for this microorganism on pyridine as sole nitrogen source at 55° C. was determined by adding pyridine at the concentration of 3 mM to the Modified A medium in a 300 ml shake flask with a side arm klett tube to take klett/turbidity readings. Inoculums from log phase cultures were used in studying the growth kinetics of the culture. […] All experiments were in triplicate.
The concentration of nitrogen required by Aneurinibacillus sp. for growth was investigated using ammonium chloride and pyridine as sole nitrogen sources in modified medium A, at pH 7 and 55° C.
Substrate range and specificity tests were carried out for this culture. Experiments were performed during 2 to 3 weeks of incubations in sterile tubes with 3 mM concentration of the test compounds and an incubation volume of 5 ml.

Pseudomonas stutzeri = assay: Utilization of carbazole as nitrogen or carbon source; format: cell-based
Protocol: This culture is prepared by the methods described hereinbefore. […] Experimental results lead to the conclusion that C—N bonds in carbazole are selectively cleaved by the Pseudomonas stutzer culture isolated here although the specific metabolites produced have not yet been determined.

Yokenella sp. = assay: as above; format: cell-based
Protocol: The Yokenella sp. culture is prepared according to the principles described hereinbefore. […] Experimental results lead to the conclusion that C—N bonds in carbazole are selectively cleaved by the Yokenella sp. culture isolated here although the specific metabolites produced have not yet been determined.

[2] = test system: Derivatives of Pseudomonas ayucida No PTA-806; assay: Utilization of organonitrogen compounds by derivative culture; format: cell-based
Description: Similarly, derivatives of Pseudomonas ayucida No PTA-806 that are resistant to antiobiotics, either by the isolation of chromosomal mutations or by the introduction of suitable plasmids, retain the ability to selectively cleave C—N bonds in quinoline and other organonitrogen compounds.

[3] = test system: Pseudomonas ayucida No PTA-806; assay: Petroleum (shale oil) biodenitrogenation test; format: cell-based; settings: overnight (16 hour) incubation
Protocol: One liter of culture OD600=1.67 is produced, which is harvested and the cell pellet is resuspended in 100 mls of ModA medium. The culture is divided into two 50 ml portions and 3 ml of shale oil (1.7 weight % nitrogen) is added to each. Then, the cultures are incubated under agitation at room temperature overnight (16 hours), the oil is separated and analyzed. The amount of quinoline present in oil samples is determined by GC, the area under the peak being corresponding to a retention time for quinoline.
Then duplicate washed concentrated cell suspensions were incubated with shale oil samples for 16 hours at 30° C. The control sample consisted of shale oil added to sterile ModA medium which was incubated for 16 hours at 30° C. After incubation the petroleum samples were recovered and analyzed.

[4] = test system: Pseudomonas nitroreducens
[5] = modified medium A, pH 7, 55° C.
[6] = pyridine 3 mM as sole nitrogen source, 55° C., Modified A medium

Q: `CCCCN1CCCC1` [1-butylpyrrolidine] was tested. Which “growth in the presence of test compound when quinoline simultaneously present as alternate nitrogen source” value [1] did it give?
A: grew in the presence of all of the test compounds except

Q: For `Oc1cc(O)c2ccccc2n1` [2,4-quinolinediol], which “growth on test compound as nitrogen source” value (“growth … as nitrogen source” below) [1] is on record?
A: grow

Q: For `C=C1N(C)c2ccccc2C1(C)C` [2-methylene-1,3,3-trimethyl indoline], which “growth in the presence of test compound when quinoline simultaneously present as alternate nitrogen source” value [1] is on record?
A: grew in the presence of all of the test compounds except

Q: With `O=C1CCc2ccccc2N1` [3,4-dihydro-(1H)-quinolinone] as the molecule, how does the “growth … as nitrogen source” value [1] read?
A: grow

Q: With `O=c1ccc2cccc(O)c2o1` [8-hydroxycoumarin] as the molecule, how does the “utilization as carbon source for growth” value [1] read?
A: lack of utilization

Q: `Oc1cccc2cccnc12` [8-hydroxyquinoline] was tested. Which “growth … as nitrogen source” value [1] did it give?
A: grow

Q: With `Cl.N` [ammonium chloride] as the molecule, how does the “minimum nitrogen concentration needed for growth” value (Aneurinibacillus sp.; [5]) read?
A: 0.5 mM

Q: What does the source list for `c1ccc2c(c1)[nH]c1ccccc12` [carbazole]?
A: utilization as sole nitrogen source (Pseudomonas stutzeri): able to utilize; utilization as source of carbon (Pseudomonas stutzeri): dose not utilize; utilization as sole nitrogen source (Yokenella sp.): able to utilize; utilization as source of carbon (Yokenella sp.): dose not utilize

Q: How did the “growth on test compound (substrate range)” value (“growth … (substrate range)” for short) (Aneurinibacillus sp.) turn out when `Nc1nc2nc[nH]c2c(=O)[nH]1` [guanine] was run?
A: showed growth

Q: And the “growth … as nitrogen source” value [1]?
A: grow

Q: How did the “utilization / metabolism by derivative culture” value (“utilization / metabolism” for short) [2] turn out when `c1ccc2cnccc2c1` [isoquinoline] was run?
A: increased substrate range for the metabolism

Q: How did the “growth … (substrate range)” value (Aneurinibacillus sp.) turn out when `NCCCC[C@H](N)C(=O)O` [lysine] was run?
A: showed growth

Q: And the “growth … as nitrogen source” value [1]?
A: grow

Q: Which “growth … (substrate range)” value (Aneurinibacillus sp.) does the source give for `O=C(O)c1cccnc1` [nicotinic acid] here?
A: showed growth

Q: What about the “growth … as nitrogen source” value [1] of the same molecule?
A: grow

Q: With `c1ccncc1` [pyridine] as the molecule, how does the “utilization as carbon source” value (Aneurinibacillus sp.) read?
A: no utilization

Q: And the “growth … (substrate range)” value (Aneurinibacillus sp.)?
A: showed growth

Q: What about the “utilization as sole nitrogen source” value (Aneurinibacillus sp.; 55° C.) of the same molecule?
A: able to utilize

Q: What about the “concentration inhibitory to the culture” value (Aneurinibacillus sp.; [5]) of the same molecule?
A: higher than 10 mM

Q: And the exponential growth rate (Aneurinibacillus sp.; [6])?
A: 0.13 h

Q: And the generation time (Aneurinibacillus sp.; [6])?
A: 7.55 h

Q: What about the “minimum nitrogen concentration needed for growth” value (Aneurinibacillus sp.; [5]) of the same molecule?
A: 0.5 mM

Q: For `c1ccc2ncncc2c1` [quinazoline], which “utilization / metabolism” value [2] is on record?
A: increased substrate range for the metabolism

Q: Which results are given for `c1ccc2ncccc2c1` [quinoline]?
A: utilization as carbon source for growth [1]: lack of utilization; cell doubling time ([1]; defined salts medium, 30° C., quinoline as sole nitrogen source): 4.25 h; growth on test compound as nitrogen source [1]: grow; quinoline removed from shale oil [3]: about 68%; growth with compound as sole source of nitrogen [4]: growth with quinoline as sole source of nitrogen is indicated; reduction of total nitrogen content of the medium ([4]; quinoline 3.4 mM as sole source of nitrogen): up to 85%

Q: Which “growth … as nitrogen source” value [1] does the source give for `c1ccc2nccnc2c1` [quinoxaline] here?
A: grow

Q: What about the “utilization / metabolism” value [2] of the same molecule?
A: improved ability to utilize

Q: For `N[C@@H](Cc1c[nH]c2ccccc12)C(=O)O` [tryptophan], which “growth … (substrate range)” value (Aneurinibacillus sp.) is on record?
A: showed growth

Q: What about the “growth … as nitrogen source” value [1] of the same molecule?
A: grow

Q: What does the source list for `NC(N)=O` [urea]?
A: growth on test compound (substrate range) (Aneurinibacillus sp.): showed growth; growth on test compound as nitrogen source [1]: grow
